Experimental data taken from publication PMC6450895, “A fungal substrate mimicking molecule suppresses plant immunity via an inter-kingdom conserved motif” (Nature Communications, 2019).
“Also recorded” adds a separate entry of the source.

Assays:
[1] = system: proteases of maize apoplastic fluid processing UmPit2; assay: Effect of protease inhibitors on processing of UmPit2 in maize apoplastic fluid; type: biochemical; settings: apoplastic fluid preincubated with inhibitor 10 min; 0, 15, 30 min
Description: Fig. 5 PLCPs cleave UmPit2 in the apoplast. a Input used to perform inhibitory test of Pit2 stability. Heterologous expressed UmPit2 and maize AF at different time points during the experiment. b Addition of E-64 stabilizes Pit2 degradation. Four inhibitors for main classes of proteases: E-64 for cysteine proteases, DCI for serine hydrolases, EDTA for metalloproteases and Pepstatin A for aspartic proteases were preincubated with maize AF for 10 min. Pit2 degradation was analyzed over time (0, 15 and 30 min) using SyproRuby staining. c Inhibition of cysteine proteases stabilizes Pit2 in the apoplast. Maize AF was coincubated with a mix of inhibitors containing DCI [10 µM], EDTA [1 mM] and Pepstatin A [10 µM] (Inh. Mix) with or without E-64 [10 µM]. As a control the noninhibitor sample containing DMSO is shown. d Fractionation of SA-treated apoplastic fluid by anion-exchange chromatography. […] F-24 was preincubated with 10 µM E-64 or DMSO followed by addition of purified UmPit2. Samples were incubated for 0, 15 and 30 min and analyzed by gel electrophoresis using SyproRuby. f UmPit2 is processed at similar rates as an endogenous maize substrate. UmPit2 as well as the endogenous maize PLCP substrate Prozip11 were heterologous expressed in E-coli. 3.2 µM proteins were coincubated with F-24 pretreated with inhibitor mix (Inh. mix) in the presence or absence of E-64. Processing of Prozip11 and UmPit2 has been monitored over time. Samples were analyzed by gel electrophoresis and stained with SyproRuby for visualization. As a control purified proteins as well as F-24 were loaded on gel (right gel). DMSO dimethyl sulfoxide, DCI 3,4-dichloroisocoumarin
(§1) Approximately 41 µg/ml heterologous expressed UmPit2 and UhPit2 proteins (concentration calculated with the previously described semi-quantitative approach based on SyproRuby) were incubated with or without apoplastic fluids (ca. 200 µg/ml) over time. Reaction was stopped by adding 2× SDS-gel loading buffer) and samples were analyzed by gel electrophoresis and SyproRuby staining (Invitrogen, Paisley, UK). Inhibition of apoplastic fluids containing specific inhibitors was performed as described in the main text. E-64 and pepstatin A were diluted in DMSO at a desired concentration. DCI was diluted in dimethyl formamide. All compounds have been purchased by Sigma-Aldrich (Taufkirchen, Germany). Stability experiments using F-24 were performed using ca. 1.4 µg/µl of the fraction and 3.2 µM of heterologous expressed UmPit2 or […].

[2] = system: F-24 (PLCP-enriched fraction of maize apoplastic fluid); assay: Stability/processing in PLCP-enriched fraction F-24 (SDS gel, SyproRuby); type: in vitro ADME; settings: F-24 preincubated with 50 µM / 10 µM E-64
Description: as §1

[3] = system: PLCPs of fractionated maize apoplastic fluid; assay: PLCP activity of anion-exchange fractions, substrate Z-Phe-Arg-AMC; type: biochemical
Description: Fig. 5 PLCPs cleave UmPit2 in the apoplast. a Input used to perform inhibitory test of Pit2 stability. Heterologous expressed UmPit2 and maize AF at different time points during the experiment. b Addition of E-64 stabilizes Pit2 degradation. Four inhibitors for main classes of proteases: E-64 for cysteine proteases, DCI for serine hydrolases, EDTA for metalloproteases and Pepstatin A for aspartic proteases were preincubated with maize AF for 10 min. Pit2 degradation was analyzed over time (0, 15 and 30 min) using SyproRuby staining. c Inhibition of cysteine proteases stabilizes Pit2 in the apoplast. […] Samples were incubated for 0, 15 and 30 min and analyzed by gel electrophoresis using SyproRuby. f UmPit2 is processed at similar rates as an endogenous maize substrate. […] Processing of Prozip11 and UmPit2 has been monitored over time. Samples were analyzed by gel electrophoresis and stained with SyproRuby for visualization. […]
Activity of PLCPs present in isolated apoplastic fluids was monitored using 10 µM final concentration of the fluorogenic substrate Z-Phe-Arg-7-amido-4-methylcoumarin (Sigma-Aldrich, Taufkirchen, Germany). AMC released (RFU) over time was monitored at 460 nm using a Tecan Infinite M200 PRO plate reader (Tecan Group Ltd., Männedorf, Switzerland). […] The inhibitor control was used to normalize all measurements and obtain a read-out for specific PLCP activity. […]

[4] = system: apoplastic PLCPs of barley; assay: Apoplastic PLCP activity in SA-treated barley; type: in vivo; settings: Supplementary Fig. 9

Molecule	effect on processing of UmPit2 in maize apoplastic fluid (in words) [1]	effect of E-64 on processing by F-24 (in words) [2]	PLCP activity of fractions with inhibitor (in words) [3]	induction of apoplastic PLCPs by SA (in words) [4]
O=c1oc(Cl)c(Cl)c2ccccc12 [DCI, 3,4-dichloroisocoumarin]	Processing of UmPit2 was observed gradually	–	–	–
CC(C)C[C@H](NC(=O)[C@H]1O[C@@H]1C(=O)O)C(=O)NCCCCN=C(N)N [E-64]	E-64 stabilizes UmPit2	stabilized in the fraction preincubated with E-64; also recorded: stabilization of Prozip1 and UmPit2	did not show any activity	–
O=C(O)CN(CCN(CC(=O)O)CC(=O)O)CC(=O)O [EDTA]	Processing of UmPit2 was observed gradually	–	–	–
O=C(O)c1ccccc1O [SA, salicylic acid]	–	–	–	not found in barley
pepstatin-A	Processing of UmPit2 was observed gradually	–	–	–
